# B1: Cp7.38: glycosyl transferase, SEQ ID NO: 191, 192 (protein)
# chain: MGSEVLHHDYSQLNIFFFPFMAHGHMIPTLDMAKLFATHGAKTSIITTPLNLPFFSKSIERFSKQTGLEIGVKLLNFPSVEVGLPSGCENADSLPAGEPLIVNKFFAAAGMLKDPLERLLQEFKPDCLIADMFFPWTTDAAAKFDIPRLVFHGTSFFALSASECIRLYTPFNNVSSDSEPFLVPTLPDEIRLTRNQLADFAMKEGDENGIHRLIKEAKESELKSYGVVVNSFYELEPAYADHYRNFLKRKAWHIGPVSLCNKTVEDKAERGKRASIDEDECLKWLNSKAPNSVIYICFGSMANFNSAQLMEIATALDASGQEFIWVVRREKNENNQEDWLPEGFEQRTEGKGLIIRGWAPQVLILEHEAVGGFVTHCGWNSTLEGVTAGMPMVTWPVSAEQFYNEKLVTEVLKIGLSVGVKKWVRSEGDFVSREKVEQAVREIMVGSEAVERRMRAKAMADMARAAVEKGGSSYNDLNALLREVSLMRRQQSQNQ
# B2: Pt78G: glycosyl transferase, SEQ ID NO: 165, 166 (protein)
# chain: MSEARNDLKHIAVLAFPVATHGPPLLSLVRRLSASASYAKFSFFSTKESNSKLFSKEDGLENIKPYNVSDGLPENYNFAGNLDEVMNYFFKATPGNFKQAMEVAVKEVGKDFTCIMSDAFLWFAADFAQELHVPWVPLWTSSSRSLLLVLETDLVHQKMRSIINEPEDRTIDILPGFSELRGSDIPKELFHDVKESQFAAMLCKIGLALPQAAVVASNSFEELDPDAVILFKSRLPKFLNIGPFVLTSPDPFMSDPHGCLEWLDKQKQESVVYISFGSVISLPPQELAELVEALKECKLPFLWSFRGNPKEELPEEFLERTKEKGKVVSWTPQLKVLRHKAIGVFVTHSGWNSVLDSIAGCVPMICRPFFGDQTVNTRTIEAVWGTGLEIEGGRITKGGLMKALRLIMSTDEGNKMRKKLQHLQGLALDAVQSSGSSTKNFETLLEVVAK
# Assay: In vitro glycosyl transferase performance, purified enzymes, % conversion of cannabinoids to cannabinoid glycosides
# Format: biochemical
# Conditions: for Conversion % (11-nor-9-carboxy-THC-glycoside produced): substrate 11-nor-9-carboxy-THC, enzyme PL-113(Tc90A_GA); for Conversion % (CBD to the glycoside): acceptor CBD; for Conversion % (THC-glycoside produced): substrate THC; for Conversion % (CBDV to the glycoside): acceptor CBDV; for Conversion % (CBG to the glycoside): acceptor CBG
# Procedure: For in vitro studies of glycosyl transferase performance in glycosylating cannabinoids, purified Glycosyl transferases were prepared as follows:
# 5 mL of 2× concentrated LB medium+Ampicillin (50 μg/m L) was inoculated with E. coli XJb (DE3) strains expressing a glycosyl transferase of interest and incubated overnight at 30° C. with shaking. The following day, cell cultures were transferred into 500 mL of 2× concentrated LB medium+Ampicillin (50 μg/mL) and incubated overnight at 30° C. with shaking. The following day, the cell cultures were transferred to 1 L of 2× concentrated LB medium+Ampicillin (50 μg/mL)+3 mM arabinose+0.1 mM IPTG. Cells were incubated for 24 h at 20° C. with shaking. The following day, the cells were collected by centrifugation at 46500×g for 10 mins at 4° C. Cells were resuspended in 20 mL ice-cold GT buffer (50 mM Tris-HCl pH7.4+1 mM phenylmethanesulfonyl fluoride+1 cOmplete™, mini, EDTA-free Protease Inhibitor Cocktail tablet (Roche)). The resuspended material was transferred to a 50 mL falcon tube and kept at −80° C. for at least 15 mins. Falcon tubes were then thawed at room temperature, as the tubes were thawing the following reagents were added; 2.6 mM MgCl2, 1 mM CaCl2, 250 μL of a 1.4 mg/ml DNase solution (Sigma) dissolved in MilliQ water. Tubes were gently inverted to mix then were incubated for 5 mins at 37° C. Binding buffer was then added to the tubes (50 mM Tris-HCl pH7.4, 10 mM imidazole, 500 mM NaCl. 11.25 mL MilliQ water) and the pH adjusted to 7.4 with HCl. The mix was centrifuged at 15550×g for 15 mins at 4° C., the supernatant transferred to a fresh 50 mL falcon tubes and centrifuged again to remove any remaining cellular debris at 48400×g for 20 minutes at 4° C. While the enzyme prep was centrifuging, 3 mL of HIS-Select (available from Sigma P6611) column material was added to a fresh 50 mL tube and washed by adding MilliQ water up to 50 mL, centrifuging at 2000×g for 2 mins and discarding the supernatant. This washing step was repeated. Finally, MilliQ water was added to the HIS-Select material to an approximate 50% volume. Collected supernatant from the centrifuged enzyme preparation was transferred to the tube containing the HIS-Select material through a Miracloth (available from Merck Millipore), and then incubated at 4° C. with gently shaking by inversion for 2 h. After 2 h the mix was centrifuged at 2000×g for 4 minutes at 4° C. and the supernatant discarded. The remaining HIS-Select material was washed twice with 1× binding buffer (50 mM Tris-HCl, 0.5M NaCl, 10 mM Imidazole, pH 7.4) with centrifugation at 2000×g for 4 minutes at 4° C. The HIS-Select material was resuspended in 5 mL 1× binding buffer and transferred to a Poly-Prep®Chromatography Column (available from BioRad, 7311550). The HIS-Select material was kept at 4° C. and washed twice with 1× binding buffer by filling up the column and allowing it to drip through. Finally, purified Glycosyl transferases were eluted from the HIS-Select material by adding 7.5 mL of elution buffer (50 mM Tris-HCl, 500 mM Imidazole, pH7.4) and collecting the flow through. Enzymes were used immediately in in vitro enzyme assays or stored at −20° C. in 50% glycerol until needed.
# In vitro conversion of various cannabinoids to cannabinoid glycosides was carried out according to table 21. Alkaline phosphatase was provided by New England Biolabs (M0371S). Cannabinoids were dissolved in methanol. The UDP-sugar (e.g. UDP-glucose) was provided by a commercial supplier (e.g. Sigma) or produced by in vitro enzymatic conversion from a commercially available UDP-sugar as shown in Example 21.
# The reaction mixture was scaled up or down as required. The reaction mixture was incubated without shaking at 30° C. for 24 hours. Extraction and analysis were performed as described above for this example. […]
# [1] = UDP-Xylose, enzyme PL-214(Cs73Y_GA)
# [2] = UDP-Glucose, enzyme PL-214(Cs73Y_GA)
molecule,measurement,setting,value
11-nor-9-carboxy-THC-1′-O-β-D-di-glucoside [OB42],Conversion % (11-nor-9-carboxy-THC-glycoside produced),sugar donor UDP-Glucose,3.4%
"C=C(C)C1CCC(C)=CC1c1c(O)cc(CCCCC)cc1O[C@@H]1O[C@H](CO)[C@@H](O)[C@H](O[C@@H]2O[C@H](CO)[C@@H](O)[C@H](O)[C@H]2O)[C@H]1O (stereo partly drawn) [OB2, CBD-1′-O-β-D-laminaribioside]",Conversion % (CBD to the glycoside),"UDP-Glucose, enzymes PL-159(Pt88G_GA) + PL-55(Sr76G1_GA)",80.7%
C=C(C)C1CCC(C)=CC1c1c(O)cc(CCCCC)cc1OC1OC(COC2OC(CO)C(O)C(O)C2O)C(O)C(O)C1O (stereo not shown) [OB3],Conversion % (CBD to the glycoside),"UDP-Glucose, enzymes PL-159(Pt88G_GA) + PL-152(Si94D_GA)",96.4%
"C=C(C)C1CCC(C)=CC1c1c(O)cc(CCCCC)cc1O[C@@H]1OC[C@@H](O)[C@H](O)[C@H]1O (stereo partly drawn) [OB9, CBD-1′-O-β-D-xyloside]",Conversion % (CBD to the glycoside),"UDP-Xylose, enzyme PL-159(Pt88G_GA)",12.4%
C=C(C)C1CCC(C)=CC1c1c(O)cc(CCCCC)cc1OC1OC(C(=O)O)C(O)C(O)C1O (stereo not shown) [OB14],Conversion % (CBD to the glycoside),"UDP-Glucuronic Acid, enzyme PL-214(Cs73Y_GA)",2.0%
C=C(C)C1CCC(C)=CC1c1c(O)cc(CCCCC)cc1OC1OC(CO)C(O)C(O)C1O (stereo not shown) [OB16],Conversion % (CBD to the glycoside),"UDP-Galactose, enzyme PL-214(Cs73Y_GA)",62%
"CCCCCc1cc(O[C@@H]2O[C@H](CO)[C@@H](O)[C@H](O)[C@H]2O)c2c(c1)OC(C)(C)[C@@H]1CCC(C)=C[C@@H]21 [OB20, THC-1′-O-β-D-glucoside]",Conversion % (THC-glycoside produced),"sugar donor UDP-Glucose, enzyme PL-182(Ha88B_2_GA)",74.9%
CCCCCc1cc(OC2OCC(O)C(O)C2O)c2c(c1)OC(C)(C)C1CCC(C)=CC21 (stereo not shown) [OB21],Conversion % (THC-glycoside produced),"sugar donor UDP-Xylose, enzyme PL-214(Cs73Y_GA)",19.5%
"C=C(C)[C@@H]1CCC(C)=C[C@H]1c1c(O)cc(CCC)cc1O[C@@H]1O[C@H](CO)[C@@H](O)[C@H](O)[C@H]1O [OB24, CBDV-1′-O-β-D-glucoside]",Conversion % (CBDV to the glycoside),"UDP-Glucose, enzyme PL-326(Ha72B_GA)",92.6%
"C=C(C)[C@@H]1CCC(C)=C[C@H]1c1c(O[C@@H]2O[C@H](CO)[C@@H](O)[C@H](O)[C@H]2O)cc(CCC)cc1O[C@@H]1O[C@H](CO)[C@@H](O)[C@H](O)[C@H]1O [OB25, CBDV-1′-O-β-O-glucosyl-3′-O-β-D-glucoside]",Conversion % (CBDV to the glycoside),"UDP-Glucose, enzyme PL-342(Cp73B_GA)",4.5%
C=C(C)C1CCC(C)=CC1c1c(O)cc(CCC)cc1OC1OCC(O)C(O)C1O (stereo not shown) [OB29],Conversion % (CBDV to the glycoside),[1],12.1%
"C=C(C)C1CCC(C)=CC1c1c(OC2OC(CO)C(O)C(O)C2O)cc(CCCCC)c(C(=O)O)c1O [OB31, CBDA-1′-O-β-D-glucoside]",Conversion % (CBDA to the glycoside),"acceptor CBDA, UDP-Glucose, enzyme PL-214(Cs73Y_GA)",92%
"CCCCCc1cc(O)c(C/C=C(\C)CCC=C(C)C)c(O[C@@H]2O[C@H](CO)[C@@H](O)[C@H](O)[C@H]2O)c1 [OB32, CBG-1′-O-β-D-glucoside]",Conversion % (CBG to the glycoside),"UDP-Glucose, enzyme PL-340(Qs72S_1_GA)",98.9%
"CCCCCc1cc(O[C@@H]2O[C@H](CO)[C@@H](O)[C@H](O)[C@H]2O)c(C/C=C(\C)CCC=C(C)C)c(O[C@@H]2O[C@H](CO)[C@@H](O)[C@H](O)[C@H]2O)c1 [OB33, CBG-1′-O-β-D-glucosyl-3′-O-β-D-glucoside]",Conversion % (CBG to the glycoside),"UDP-Glucose, enzyme PL-5(At73C5_GA)",4.5%
CCCCCc1cc(O)c(C/C=C(\C)CCC=C(C)C)c(O[C@@H]2OC[C@@H](O)[C@H](O)[C@H]2O)c1 [OB36],Conversion % (CBG to the glycoside),[1],1.0%
"CCCCCc1cc(O[C@@H]2O[C@H](CO)[C@@H](O)[C@H](O)[C@H]2O)c2c(c1)OC(C)(C)[C@@H]1CCC(C(=O)O)=C[C@@H]21 [OB41, 11-nor-9-carboxy-THC-1′-O-β-D-glucoside]",Conversion % (11-nor-9-carboxy-THC-glycoside produced),sugar donor UDP-Glucose,70.2%
CBD-1′-O-β-D-glucosyl-3′-O-β-D-di-glucoside [OB8],Conversion % (CBD to the glycoside),[2],12.3%
CBD-1′-O-β-D-tri-glucoside [OB7],Conversion % (CBD to the glycoside),[2],27.3%
CBG-1′-O-β-D-tetra-xyloside [OB40],Conversion % (CBG to the glycoside),[1],1.2%
CBN-1′-O-β-D-di-glucoside [OB23],Conversion % (CBN-glycoside produced),"substrate CBN, sugar donor UDP-Glucose, enzyme PL-342(Cp73B_GA)",100%
B1,conversion of cannabinoid aglycone to cannabinoid glycoside in 24 h,CBN to CBN-1′-O-β-D-di-glucoside (OB23),100%
B2,conversion of cannabinoid aglycone to cannabinoid glycoside in 24 h,CBG to CBG-1′-O-β-D-glucosyl-3′-O-β-D-glucoside (OB33),100%

# Reference: patent US20220290200A1, “GENETICALLY MODIFIED HOST CELLS PRODUCING GLYCOSYLATED CANNABINOIDS” (OCTARINE BIO IVS, priority 2019, published 2022)
